This passage reports Kd results from publication PMC8830175, “Bex1 is essential for ciliogenesis and harbours biomolecular condensate-forming capacity” (BMC Biology, 2022).

For the assay, the target named is T1, Bex1 (recombinant Bex1 protein) (Mus musculus, UniProt Q9R224).
T1 construct: N-terminal hexahistidine tag (pETDuet-1), expressed in E. coli Rosetta-gami 2(DE3)pLysS, non-denaturing Ni-NTA purification, 15N-labelled; tag removal not mentioned
T1 sequence (Q9R224 1-128): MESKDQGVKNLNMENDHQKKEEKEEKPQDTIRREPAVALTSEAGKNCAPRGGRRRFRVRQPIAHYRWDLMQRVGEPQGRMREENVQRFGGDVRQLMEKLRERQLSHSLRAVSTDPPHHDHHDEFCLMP
In words: 2D 1H-15N HSQC NMR titration (chemical shift perturbation). It is filed as binding. An excerpt:
2D 1H-15N HSQC NMR titration (chemical shift perturbation) on Bex1 (recombinant Bex1 protein) | The peak shift of Bex1 was GTP concentration-dependent with the dissociation constant (Kd) equal to […]

As a reminder, the Kd is the free concentration of one partner at which half of the binding sites on the other are occupied at equilibrium, for simple one-to-one binding. On to `Nc1nc2c(ncn2[C@@H]2O[C@H](COP(=O)(O)OP(=O)(O)OP(=O)(O)O)[C@@H](O)[C@H]2O)c(=O)[nH]1` [GTP], for which the Kd stood at 244 ± 98 µM.
